The target in the experiment is glyphosate oxidoreductase from LBAA, wild type (w1w2w3: SER84, LYS153, HIS334), SEQ ID NO:5 (Ochrobactrum sp. G-1, UniProt D2KI28, S2A). In words: Kinetic analysis of glyphosate oxidoreductase, wild type (crude E. coli lysate, glyoxylate-DNPH assay). The class given is biochemical, bacterial isolate LBAA (Pseudomonas strain LBAA). The text has this: An alternate method for the assay of glyphosate oxidoreductase involves reaction of the sample with 2,4-dinitrophenylhydrazine and determination of the amount of the glyoxylate-2,4-dinitrophenylhydrazone by HPLC analysis as described in detail in a later section.
Prior examples of engineered herbicide resistance by enzymatic inactivation of the herbicide have utilized enzymes with an ability to bind and metabilize the herbicides much more efficiently than glyphosate oxidoreductase metabolizes glyphosate.
The mutagenesis procedure used was that of Mn++-poisoned PCR and the template was a linearized glyphosate oxidoreductase gene plasmid containing the synthetic glyphosate oxidoreductase gene (SEQ ID NO:8). The oligonucleotide primers used were homologous to regions in the vector and flanking the glyphosate oxidoreductase gene. The PCR conditions employed were as follows: 1 minute at 94° C., 2 minutes at 55° C., and 3 minutes at 72° C. and with 35 cycles. A 5:1 ratio of dCTP+dGTP+TTP to dATP was used. The reactions contained MnCl2 at 125, 250, 375, or 500 μM. After the reaction, the amplified product was recloned into a vector containing a weak E. coli promoter. This vector was a pBR327 derivative containing the araBAD promoter and suitable cloning sites. One hundred colonies from this cloning step were then screened in E. coli GB993 for improved glyphosate tolerance and utilization phenotypes in media composed of MOPS minimal medium with glyphosate and Pi or with glyphosate alone, respectively. Growth rates were determined by measuring A550 over a 96 hour period. […] The glyphosate oxidoreductase gene was recloned into the expression vector portion and this phenotype verified. All kinetic analysis was performed on crude E. coli lysates. Putative glyphosate oxidoreductase variant proteins were overexpressed after subcloning the NcoI/HindIII variant glyphosate oxidoreductase gene into PrecA-gene10L expression vector. For overexpression in PrecA-gene10L constructs, GB993 cells containing the vector were induced at a Klett=110-120 in M9 minimal medium with 50 μg/ml nalidixic acid and allowed to grow for 2.5 hours at 37° C. with vigorous shaking. Cells were harvested by centrifugation at 4000 g, 5 minutes at 4° C., and resuspend in 100 mM Tris-HCl, pH 7.1, 1 mM EDTA, 35 mM KCl, 20% glycerol, and 1 mM benzamidine at 3 ml/g cell pellet. Lysates were prepared by breaking the cells in a French press, twice, at 1000 psi. […] Protein concentrations were determined using the Bio-Rad protein dye-binding assay. […] Ten minutes was determined to be the optimal time for the enzyme assay using 10 μg lysate. […] Enzyme activity was determined from the amount of glyoxylate-DNPH adduct formed by measuring A520 against a standard of glyoxylate. […]

Each structure is given as a SMILES string.

Take `O=C(O)CNCP(=O)(O)O` [glyphosate, N-phosphonomethyl-glycine]: the VmKm (domain switch experiment, wt (w1w2w3), substrate glyphosate) came to 0.022. Further, for the setting “read-out: K for glyphosate, general statement on the glyphosate oxidoreductase enzyme”, the Km was in the range of 20 to 30 mM. Moreover, the “VmKm (Glyp)” value (wild type) is recorded as “.03”. Moreover, the “app Vm (Glyp)” value (wild type, pH 7.4, 30° C., enzyme amount by immunoblot) amounted to 0.8 U/mg.

The values above are taken from USRE38825E1, “Glyphosate tolerant plants” (Monsanto Technology LLC, priority 1990, dated 2005).
